Reference: US7205382B2, “Peptides, the production and use thereof for binding immunoglobulins” (Fresenius Medical Care Affina GmbH, priority 2000, dated 2007)
Bridge positions count the residues as written; N and C are the ends. Square brackets hold non-standard residues; d marks the D form. Ends that are not written are not given here. cellulose = not defined here; βAla = NCCC(=O)O

What was measured:
Format in all cases: binding
Design in all cases: key: No binding of immunoglobulin for the defined peptide variant, detection negative: 0; Binding of immunoglobulin for the defined peptide variant, detection positive: +
[1] = system: human IgG-Fc; test: Cellulose-immobilized 13-mer peptide variants incubated with human IgG-Fc, anti-human IgG-AP detection; conditions: IgG-Fc 1 μg/ml in blocking buffer, 3 h room temperature
Summary of the method: (§1)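 SPOT-type 13-mer peptides on cellulose with a (βA)(βA) spacer, blocked in 5% saccharose/4% BSA in T-TBS pH 8.0. Incubated 3 h at RT with human IgG-Fc (1 μg/ml) or human serum/plasma (1:10,000), or with blocking buffer alone as the albumin specificity control. Bound IgG detected with AP-anti-human IgG (1.2 μg/ml) and NBT/BCIP colorimetric development at pH 9.5.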

[2] = system: immunoglobulins in human plasma; test: Cellulose-immobilized 13-mer peptide variants incubated with human plasma, anti-human IgG-AP detection; conditions: human plasma as sample, diluted 1:10,000 in blocking buffer, 3 h room temperature
Summary of the method: as §1

[3] = system: serum albumin; test: Cellulose-immobilized 13-mer peptide variants incubated with serum albumin (negative control), anti-human IgG-AP detection; conditions: blocking buffer without addition, 3 h room temperature
Summary of the method: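 Spot membrane, (βA)(βA) spacer; T-TBS pH 8.0 wash, block 5% saccharose/4% BSA. 3 h RT with IgG-Fc 1 μg/ml, serum 1:10,000, or block buffer only (specificity control). 3× wash, AP-anti-human IgG 1.2 μg/ml, NBT/BCIP in pH 9.5 buffer.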

08F: cellulose-bound 13-mer variant DCAWHLGFLVWCT-(βA)(βA) (DCAWHLGFLVWCT-{βAla-βAla-cellulose}; disulfide 2-12 (inferred); not fully specified (N-terminus); printed as DCAWHLGFLVWCT-(βA)(βA); reading uncertain)
Result for incubation with human IgG-Fc (immunoglobulin binding detection) [1]: 0 | Result for incubation with human plasma (immunoglobulin binding detection) [2]: 0 | Result for incubation with serum albumin (immunoglobulin binding detection) [3]: 0

12A: cellulose-bound 13-mer variant DCAWHLGELVWAT-(βA)(βA) (DCAWHLGELVWAT-{βAla-βAla-cellulose}; not fully specified; printed as DCAWHLGELVWAT-(βA)(βA); reading uncertain)
Result for incubation with human IgG-Fc (immunoglobulin binding detection) [1]: 0 | Result for incubation with human plasma (immunoglobulin binding detection) [2]: 0 | Result for incubation with serum albumin (immunoglobulin binding detection) [3]: 0

02L: cellulose-bound 13-mer variant DLAWHLGELVWCT-(βA)(βA) (DLAWHLGELVWCT[βAla][βAla]; not fully specified; printed as DLAWHLGELVWCT-(βA)(βA); also: cellulose-bound)
Result for incubation with human IgG-Fc (immunoglobulin binding detection) [1]: 0 | Result for incubation with human plasma (immunoglobulin binding detection) [2]: 0 | Result for incubation with serum albumin (immunoglobulin binding detection) [3]: 0

01G: cellulose-bound 13-mer variant GCAWHLGELVWCT-(βA)(βA) (GCAWHLGELVWCT-{βAla-βAla-cellulose}; disulfide 2-12 (inferred); reading uncertain; also: printed as GCAWHLGELVWCT-(βA)(βA))
Result for incubation with human IgG-Fc (immunoglobulin binding detection) [1]: + | Result for incubation with human plasma (immunoglobulin binding detection) [2]: + | Result for incubation with serum albumin (immunoglobulin binding detection) [3]: 0

04H: cellulose-bound 13-mer variant DCAHHLGELVWCT-(βA)(βA) (DCAHHLGELVWCT[βAla][βAla]; disulfide 2-12 (inferred); also: cellulose-bound)
Result for incubation with human IgG-Fc (immunoglobulin binding detection) [1]: + | Result for incubation with human plasma (immunoglobulin binding detection) [2]: + | Result for incubation with serum albumin (immunoglobulin binding detection) [3]: 0

06M: cellulose-bound 13-mer variant DCAWHMGELVWCT-(βA)(βA) (DCAWHMGELVWCT-{βAla-βAla-cellulose}; disulfide 2-12 (inferred); not fully specified (N-terminus); printed as DCAWHMGELVWCT-(βA)(βA); reading uncertain)
Result for incubation with human IgG-Fc (immunoglobulin binding detection) [1]: + | Result for incubation with human plasma (immunoglobulin binding detection) [2]: + | Result for incubation with serum albumin (immunoglobulin binding detection) [3]: 0

07Y: cellulose-bound 13-mer variant DCAWHLYELVWCT-(βA)(βA) (DCAWHLYELVWCT-{βAla-βAla-cellulose}; disulfide 2-12 (inferred); not fully specified (N-terminus); printed as DCAWHLYELVWCT-(βA)(βA); reading uncertain)
Result for incubation with human IgG-Fc (immunoglobulin binding detection) [1]: 0 | Result for incubation with human plasma (immunoglobulin binding detection) [2]: 0 | Result for incubation with serum albumin (immunoglobulin binding detection) [3]: 0

08G: cellulose-bound 13-mer variant DCAWHLGGLVWCT-(βA)(βA) (DCAWHLGGLVWCT-{βAla-βAla-cellulose}; disulfide 2-12 (inferred); not fully specified (N-terminus); printed as DCAWHLGGLVWCT-(βA)(βA); reading uncertain)
Result for incubation with human IgG-Fc (immunoglobulin binding detection) [1]: 0 | Result for incubation with human plasma (immunoglobulin binding detection) [2]: 0 | Result for incubation with serum albumin (immunoglobulin binding detection) [3]: 0

11R: cellulose-bound 13-mer variant DCAWHLGELVRCT-(βA)(βA)
Result for incubation with human IgG-Fc (immunoglobulin binding detection) [1]: 0 | Result for incubation with human plasma (immunoglobulin binding detection) [2]: 0 | Result for incubation with serum albumin (immunoglobulin binding detection) [3]: 0

02E: cellulose-bound 13-mer variant DEAWHLGELVWCT-(βA)(βA) (DEAWHLGELVWCT[βAla][βAla]; not fully specified; printed as DEAWHLGELVWCT-(βA)(βA); also: cellulose-bound)
Result for incubation with human IgG-Fc (immunoglobulin binding detection) [1]: 0 | Result for incubation with human plasma (immunoglobulin binding detection) [2]: 0 | Result for incubation with serum albumin (immunoglobulin binding detection) [3]: 0

04E: cellulose-bound 13-mer variant DCAEHLGELVWCT-(βA)(βA) (DCAEHLGELVWCT[βAla][βAla]; disulfide 2-12 (inferred); also: cellulose-bound)
Result for incubation with human IgG-Fc (immunoglobulin binding detection) [1]: + | Result for incubation with human plasma (immunoglobulin binding detection) [2]: + | Result for incubation with serum albumin (immunoglobulin binding detection) [3]: 0

06S: cellulose-bound 13-mer variant DCAWHSGELVWCT-(βA)(βA) (DCAWHSGELVWCT-{βAla-βAla-cellulose}; disulfide 2-12 (inferred); not fully specified (N-terminus); printed as DCAWHSGELVWCT-(βA)(βA); reading uncertain)
Result for incubation with human IgG-Fc (immunoglobulin binding detection) [1]: + | Result for incubation with human plasma (immunoglobulin binding detection) [2]: 0 | Result for incubation with serum albumin (immunoglobulin binding detection) [3]: 0

12H: cellulose-bound 13-mer variant DCAWHLGELVWHT-(βA)(βA) (DCAWHLGELVWHT-{βAla-βAla-cellulose}; not fully specified; printed as DCAWHLGELVWHT-(βA)(βA); reading uncertain)
Result for incubation with human IgG-Fc (immunoglobulin binding detection) [1]: 0 | Result for incubation with human plasma (immunoglobulin binding detection) [2]: 0 | Result for incubation with serum albumin (immunoglobulin binding detection) [3]: 0

11P: cellulose-bound 13-mer variant DCAWHLGELVPCT-(βA)(βA)
Result for incubation with human IgG-Fc (immunoglobulin binding detection) [1]: 0 | Result for incubation with human plasma (immunoglobulin binding detection) [2]: 0 | Result for incubation with serum albumin (immunoglobulin binding detection) [3]: 0

05F: cellulose-bound 13-mer variant DCAWFLGELVWCT-(βA)(βA) (disulfide 2-12 (inferred); not fully specified (N-terminus, C-terminus); printed as DCAWFLGELVWCT-(βA)(βA); also: cellulose-bound)
Result for incubation with human IgG-Fc (immunoglobulin binding detection) [1]: 0 | Result for incubation with human plasma (immunoglobulin binding detection) [2]: 0 | Result for incubation with serum albumin (immunoglobulin binding detection) [3]: 0

08K: cellulose-bound 13-mer variant DCAWHLGKLVWCT-(βA)(βA) (DCAWHLGKLVWCT-{βAla-βAla-cellulose}; disulfide 2-12 (inferred); not fully specified (N-terminus); printed as DCAWHLGKLVWCT-(βA)(βA); reading uncertain)
Result for incubation with human IgG-Fc (immunoglobulin binding detection) [1]: + | Result for incubation with human plasma (immunoglobulin binding detection) [2]: + | Result for incubation with serum albumin (immunoglobulin binding detection) [3]: 0

10C: cellulose-bound 13-mer variant DCAWHLGELCWCT-(βA)(βA) (DCAWHLGELCWCT-{βAla-βAla-cellulose}; not fully specified (bridges); printed as DCAWHLGELCWCT-(βA)(βA); cysteine pairing not given here; reading uncertain)
Result for incubation with human IgG-Fc (immunoglobulin binding detection) [1]: 0 | Result for incubation with human plasma (immunoglobulin binding detection) [2]: 0 | Result for incubation with serum albumin (immunoglobulin binding detection) [3]: 0

04M: cellulose-bound 13-mer variant DCAMHLGELVWCT-(βA)(βA) (DCAMHLGELVWCT[βAla][βAla]; disulfide 2-12 (inferred); also: cellulose-bound)
Result for incubation with human IgG-Fc (immunoglobulin binding detection) [1]: + | Result for incubation with human plasma (immunoglobulin binding detection) [2]: + | Result for incubation with serum albumin (immunoglobulin binding detection) [3]: 0

08N: cellulose-bound 13-mer variant DCAWHLGNLVWCT-(βA)(βA) (DCAWHLGNLVWCT-{βAla-βAla-cellulose}; disulfide 2-12 (inferred); not fully specified (N-terminus); printed as DCAWHLGNLVWCT-(βA)(βA); reading uncertain)
Result for incubation with human IgG-Fc (immunoglobulin binding detection) [1]: + | Result for incubation with human plasma (immunoglobulin binding detection) [2]: + | Result for incubation with serum albumin (immunoglobulin binding detection) [3]: 0

12D: cellulose-bound 13-mer variant DCAWHLGELVWDT-(βA)(βA) (DCAWHLGELVWDT-{βAla-βAla-cellulose}; not fully specified; printed as DCAWHLGELVWDT-(βA)(βA); reading uncertain)
Result for incubation with human IgG-Fc (immunoglobulin binding detection) [1]: 0 | Result for incubation with human plasma (immunoglobulin binding detection) [2]: 0 | Result for incubation with serum albumin (immunoglobulin binding detection) [3]: 0

11Y: cellulose-bound 13-mer variant DCAWHLGELVYCT-(βA)(βA)
Result for incubation with human IgG-Fc (immunoglobulin binding detection) [1]: 0 | Result for incubation with human plasma (immunoglobulin binding detection) [2]: 0 | Result for incubation with serum albumin (immunoglobulin binding detection) [3]: 0
